Laboratory results as given in the supplement of paper PMC10307832.

Assays:
Experiment in all cases: relative viability (nuclei count vs DMSO), 5 days (fraction); higher = more cells survive
Tozasertib + Lapatinib = compound: Cc1cc(Nc2cc(N3CCN(C)CC3)nc(Sc3ccc(NC(=O)C4CC4)cc3)n2)n[nH]1 [Tozasertib] + CS(=O)(=O)CCNCc1ccc(-c2ccc3ncnc(Nc4ccc(OCc5cccc(F)c5)c(Cl)c4)c3c2)o1 [Lapatinib] (partner 2 µM)
How it was run: (§1)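 Relative viability divides the nuclei count in treated wells by that in vehicle wells. Lung cancer cell lines were seeded in 1536-well plates, dosed by pin tool the next day, and fixed and stained after 5 days in one step with final 0.05% Triton X-100, 1% formaldehyde and 1 ug/ml Hoechst. Dosing was a single drug or a fixed anchor-drug dose plus five library-drug doses (not always all listed) in √10 steps, and values are medians of duplicate plates imaged at 4×.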

Tozasertib + OSI-027 = compound: Cc1cc(Nc2cc(N3CCN(C)CC3)nc(Sc3ccc(NC(=O)C4CC4)cc3)n2)n[nH]1 [Tozasertib] + COc1cccc2cc(-c3nc([C@H]4CC[C@H](C(=O)O)CC4)n4ncnc(N)c34)[nH]c12 [OSI-027] (partner 0.5 µM)
How it was run: as §1

Tozasertib + Luminespib = compound: Cc1cc(Nc2cc(N3CCN(C)CC3)nc(Sc3ccc(NC(=O)C4CC4)cc3)n2)n[nH]1 [Tozasertib] + CCNC(=O)c1noc(-c2cc(C(C)C)c(O)cc2O)c1-c1ccc(CN2CCOCC2)cc1 [Luminespib] (partner 0.01 µM)
How it was run: as §1

Tozasertib + Phenformin = compound: Cc1cc(Nc2cc(N3CCN(C)CC3)nc(Sc3ccc(NC(=O)C4CC4)cc3)n2)n[nH]1 [Tozasertib] + N=C(N)NC(=N)NCCc1ccccc1 [Phenformin] (partner 250 µM)
How it was run: as §1

Tozasertib + Alpelisib = compound: Cc1cc(Nc2cc(N3CCN(C)CC3)nc(Sc3ccc(NC(=O)C4CC4)cc3)n2)n[nH]1 [Tozasertib] + Cc1nc(NC(=O)N2CCC[C@H]2C(N)=O)sc1-c1ccnc(C(C)(C)C(F)(F)F)c1 [Alpelisib] (partner 2 µM)
How it was run: as §1

Cell Line	relative viability (Tozasertib + Lapatinib; first compound 0.004 µM)	relative viability (Tozasertib + Lapatinib; first compound 0.01265 µM)	relative viability (Tozasertib + Lapatinib; first compound 0.04 µM)	relative viability (Tozasertib + Lapatinib; first compound 0.1265 µM)	relative viability (Tozasertib + OSI-027; first compound 0.004 µM)	relative viability (Tozasertib + OSI-027; first compound 0.01265 µM)	relative viability (Tozasertib + OSI-027; first compound 0.04 µM)	relative viability (Tozasertib + OSI-027; first compound 0.1265 µM)	relative viability (Tozasertib + Luminespib; first compound 0.004 µM)	relative viability (Tozasertib + Luminespib; first compound 0.01265 µM)	relative viability (Tozasertib + Luminespib; first compound 0.04 µM)	relative viability (Tozasertib + Luminespib; first compound 0.1265 µM)	relative viability (Tozasertib + Phenformin; first compound 0.004 µM)	relative viability (Tozasertib + Phenformin; first compound 0.01265 µM)	relative viability (Tozasertib + Phenformin; first compound 0.04 µM)	relative viability (Tozasertib + Phenformin; first compound 0.1265 µM)	relative viability (Tozasertib + Alpelisib; first compound 0.004 µM)	relative viability (Tozasertib + Alpelisib; first compound 0.01265 µM)	relative viability (Tozasertib + Alpelisib; first compound 0.04 µM)	relative viability (Tozasertib + Alpelisib; first compound 0.1265 µM)
NCI-H1395	1.29	0.818	1.04	0.572	0.7	0.6	0.646	0.437	0.595	0.815	0.604	0.649	0.46	0.429	0.47	0.359	1.15	1.04	0.914	0.753
CAL-12T	0.651	0.596	0.626	0.414	0.954	0.562	0.719	0.214	0.288	0.405	0.58	0.368	0.669	0.499	0.529	0.272	1.31	1.23	1.33	1.08
NCI-H1792	0.913	0.742	0.943	0.737	0.716	0.579	0.81	0.621	0.394		0.456	0.325	0.325		0.423	0.209	0.613	0.596	0.817	0.618
NCI-H1666	0.61	0.489	0.578	0.298	0.859		0.814	0.765	0.957	1.03	0.968	0.859	0.605	0.558	0.562	0.464	1.06	0.976	0.973	0.632
NCI-H838	1.12	0.947	1.16	0.208	0.485	0.354	0.426	0.257	0.292	0.304	0.344	0.295	0.702	0.514	0.606	0.177	1.15	0.942	1.12	1.03
NCI-H2347	1.06	1.01	0.953	0.763	0.447		0.369	0.389	0.326		0.39	0.346	0.45		0.433	0.377	0.996	1.09	0.871	0.963
